Results as given in ChEMBL document CHEMBL1201862, “PubChem BioAssay data set” (2004).
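Briefly, cells in 96-well plates were exposed to five compound concentrations for 48 h, and endpoints were estimated by linear interpolation. GI50 is the concentration that inhibits growth by half.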 Calls of active or inactive are those of the source. Rule as the data show it: active = GI50 up to about 1.1 µM and inactive = higher.

What was measured:
Test in all cases: NCI anticancer screen, dose series, 48 h
Malme-3M = test system: Malme-3M
OVCAR-5 = test system: OVCAR-5
SK-OV-3 = test system: SK-OV-3
K562 = test system: K562
SNB-19 = test system: SNB-19
EKVX = test system: EKVX
NCI/ADR-RES = test system: NCI/ADR-RES
IGROV-1 = test system: IGROV-1
KM-20L2 = test system: KM-20L2
HT-29 = test system: HT-29
A498 = test system: A498
786-0 = test system: 786-0
M14 = test system: M14
HCT-15 = test system: HCT-15
DU-145 = test system: DU-145
SNB-75 = test system: SNB-75
SF-268 = test system: SF-268
Hs-578T = test system: Hs-578T
RPMI-8226 = test system: RPMI-8226
T47D = test system: T47D

Row | Compound | GI50 (Malme-3M) | GI50 (OVCAR-5) | GI50 (SK-OV-3) | GI50 (K562) | GI50 (SNB-19) | GI50 (EKVX) | GI50 (NCI/ADR-RES) | GI50 (IGROV-1) | GI50 (KM-20L2) | GI50 (HT-29) | GI50 (A498) | GI50 (786-0) | GI50 (M14) | GI50 (HCT-15) | GI50 (DU-145) | GI50 (SNB-75) | GI50 (SF-268) | GI50 (Hs-578T) | GI50 (RPMI-8226) | GI50 (T47D)
1 | CC(=O)OC12COC1CC(O)C1(C)C(=O)C(O)C3=C(C)C(O)CC(O)(C(OC(=O)c4ccccc4)C21)C3(C)C (stereo not given) | 3.78 µM (inactive) | 3.94 µM (inactive) | 2.31 µM (inactive) | 1.58 µM (inactive) | 5.31 µM (inactive) | > 86.5 µM (inactive) | > 100 µM (inactive) | 7.23 µM (inactive) | 1.41 µM (inactive) | 1.31 µM (inactive) | > 100 µM (inactive) | 13.4 µM (inactive) | 5.94 µM (inactive) | > 100 µM | 8.43 µM (inactive) | 1.75 µM (inactive) | 3.41 µM (inactive) | 0.778 µM (active) | 1.25 µM (inactive) | 
2 | O=C1C=C(c2c(O)ccc3ccccc23)c2ccccc2C1=O | 5.2 µM (inactive) | 10.7 µM (inactive) | 10.7 µM (inactive) | 3.08 µM (inactive) | 5.96 µM (inactive) | 3.15 µM (inactive) | 3.15 µM (inactive) | 3.3 µM (inactive) | 15.4 µM (inactive) | 6.97 µM (inactive) | 8.51 µM (inactive) | 2.15 µM (inactive) | 4.69 µM (inactive) | 3.57 µM | 10.9 µM (inactive) | 3.87 µM (inactive) | 6.12 µM (inactive) |  | 2.35 µM (inactive) | 
3 | COc1cccc2c1C(=O)c1c(O)c3c(c(O)c1C2=O)C[C@@](O)(C(=O)CN1CCOCC1)C[C@@H]3OC1CC(N)C(O)C(C)O1 (stereo not given in full) | 3.27 µM (inactive) | 12.4 µM (inactive) | 7.62 µM (inactive) | 2.9 µM (inactive) | 2.62 µM (inactive) | 10.4 µM (inactive) | 5.52 µM (inactive) | 5.7 µM (inactive) | 9.77 µM (inactive) | 0.000764 µM (active) | 8.55 µM (inactive) |  |  | 12.4 µM |  | 5.07 µM (inactive) | 4.47 µM (inactive) |  | 1.61 µM (inactive) | 
4 | COC(=O)/C(=N\Nc1nnc(C)n1N)C(C#N)c1ccccc1 (stereo not given) | 22.3 µM (inactive) | > 100 µM (inactive) | > 100 µM (inactive) | > 100 µM (inactive) | > 100 µM (inactive) | > 100 µM (inactive) | > 100 µM (inactive) | > 54.8 µM (inactive) | > 100 µM (inactive) | > 63.1 µM (inactive) |  | > 39.9 µM (inactive) | > 74.6 µM (inactive) | 56.5 µM | > 100 µM (inactive) | > 64.9 µM (inactive) | > 100 µM (inactive) | > 100 µM (inactive) | 99.5 µM (inactive) | > 100 µM (inactive)
5 | CC1=NCCc2cc3[nH]c4ccccc4c3cc21 | 10.7 µM (inactive) | 16.6 µM (inactive) | 17.8 µM (inactive) | 9.79 µM (inactive) | 49.1 µM (inactive) | 41.2 µM (inactive) | 23.7 µM (inactive) | 26.9 µM (inactive) | 11.2 µM (inactive) | 14.8 µM (inactive) | 11.5 µM (inactive) |  |  | 21.7 µM |  | 23.2 µM (inactive) | 22.1 µM (inactive) |  | 13.2 µM (inactive) | 
6 | C/C=C1\C[C@@H]2C(OC)Nc3cc(O)c(OC)cc3C(=O)N2C1 (stereo not given in full) | < 0.01 µM (active) | < 0.01 µM (active) | < 0.01 µM (active) | < 0.01 µM (active) | 0.0074 µM (active) | < 0.0103 µM (active) | < 0.01 µM (active) | < 0.01 µM (active) | 0.00887 µM (active) | < 0.01 µM (active) | 0.0273 µM (active) |  | 0.00461 µM (active) | < 0.01 µM | < 0.01 µM (active) | < 0.01 µM (active) | < 0.01 µM (active) | 0.0142 µM (active) | < 0.01 µM (active) | 0.0141 µM (active)
